The numbers were not newly measured in US20170009119A1, “DIELECTRIC FLUID AND COOLANT MADE WITH BIOBASED BASE OIL” (Novvi LLC, priority 2014, published 2017), which cites them from elsewhere.

In this series the test system is aquatic life. The note with it: European Directive 67/548/EEC.

On to `c1ccc2c(c1)CCCC2` [tetralin, 1,2,3,4-tetrahydronaphthalene], for which the “toxicity to aquatic life (code R51/53)” value was “toxic to aquatic life with long lasting effects”.
